Test results reported in PubChem BioAssay (NCI).
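Where inhibition never reached the appropriate level, the endpoint shown equals the highest concentration tested. Otherwise, values were interpolated linearly from a five-concentration, 48-hour dose response in 96-well plates. GI50: concentration for 50% inhibition of growth. TGI: concentration producing complete growth inhibition.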

Tests used:
Assay in all cases: NCI-60 cell line screen, 48 h
CCRF-CEM leukemia = tested on: CCRF-CEM leukemia
HCC-2998 colon = tested on: HCC-2998 colon
HT29 colon = tested on: HT29 colon
K-562 leukemia = tested on: K-562 leukemia
MALME-3M melanoma = tested on: MALME-3M melanoma
MDA-MB-435 = tested on: MDA-MB-435
NCI-H522 lung = tested on: NCI-H522 lung
NCI/ADR-RES ovarian = tested on: NCI/ADR-RES ovarian
SK-MEL-28 melanoma = tested on: SK-MEL-28 melanoma
MDA-MB-231 breast = tested on: MDA-MB-231 breast

SMILES	TGI (CCRF-CEM leukemia) [µM]	TGI (HCC-2998 colon) [µM]	TGI (HT29 colon) [µM]	TGI (K-562 leukemia) [µM]	TGI (MALME-3M melanoma) [µM]	TGI (MDA-MB-435) [µM]	TGI (NCI-H522 lung) [µM]	TGI (NCI/ADR-RES ovarian) [µM]	TGI (SK-MEL-28 melanoma) [µM]	TGI (MDA-MB-231 breast) [µM]	GI50 (CCRF-CEM leukemia) [µM]	GI50 (HCC-2998 colon) [µM]	GI50 (HT29 colon) [µM]	GI50 (MALME-3M melanoma) [µM]	GI50 (MDA-MB-231 breast) [µM]	GI50 (MDA-MB-435) [µM]	GI50 (NCI-H522 lung) [µM]	GI50 (NCI/ADR-RES ovarian) [µM]	GI50 (SK-MEL-28 melanoma) [µM]
COc1ccccc1C1c2cc3c(cc2OC(N2CCCC2)C1C)OCO3 (stereo not drawn)	47.8	32.9	39.5	> 53.3	43.2	34.2	42.1	53.7	48	–	–	–	–	–	–	–	–	–	–
O=c1ccc2ccccc2c2ccccc12	11.4	21.4	6.78	33.1	22.3	–	11.2	–	16.8	–	–	–	–	–	–	–	–	–	–
C/C(N)=N/OCc1nc(C)no1	> 100	> 100	> 100	> 100	–	> 100	> 100	> 100	> 100	> 100	–	–	–	–	–	–	–	–	–
c1ccc2c(-c3csc(-c4c[nH]c5ccccc45)n3)c[nH]c2c1	–	> 100	> 83.6	15.1	> 100	> 100	–	> 100	> 100	> 100	–	–	–	–	–	–	–	–	–
CC(C)N(C(=O)C12C3C4C1C1C2C3C41C(=O)N(C(C)C)C(C)C)C(C)C (stereo not drawn)	> 50	> 50	> 50	> 50	> 50	–	> 50	–	> 50	–	–	–	–	–	–	–	–	–	–
Cc1ccc(S(=O)(=O)NC(=O)Nc2cc(Cl)c(S(N)(=O)=O)cc2S(N)(=O)=O)cc1	> 100	–	> 100	> 100	> 100	> 100	> 100	> 100	> 100	> 100	–	–	–	–	–	–	–	–	–
O=[N+]([O-])/C=C/c1cn(CCCCCCCCCCCCn2cc(/C=C/[N+](=O)[O-])c3ccccc32)c2ccccc12	> 100	> 100	> 100	–	> 100	> 100	> 100	> 100	> 100	> 100	–	–	–	–	–	–	–	–	–
c1cc(CN2CCNCCNCCNCC2)cc(CN2CCNCCNCCNCC2)c1	–	> 100	> 100	> 100	> 100	> 100	–	> 100	> 100	> 100	–	–	–	–	–	–	–	–	–
CC1SC(c2ccc(Cl)cc2)N(CCc2cccs2)C1=O (stereo not drawn)	11.3	3.4	3.14	–	4.05	3.06	2.75	3.2	2.99	3.28	2.14	1.55	1.48	2.12	1.55	1.51	1.34	1.39	1.58
CCC(=O)C(CCN1CCC(N2C(=O)C(CCC#N)c3ccccc32)CC1)(c1ccccc1)c1ccccc1 (stereo not drawn)	–	25.2	12.9	23.1	24.8	17.6	25.8	25	34.9	20.8	–	–	–	–	–	–	–	–	–
